{"source": "ChEMBL document CHEMBL1151826", "about": "“Sulfated steroids: ptilosteroids A-C and ptilosaponosides A and B from the Solomon Islands marine sponge Ptilocaulis spiculifer” (J Nat Prod, 2009)"}
{"tested_on": "KB", "experiment": "Cytotoxicity against human KB cells", "format": "functional, cell-based"}
{"smiles": "C=CC1CC(O)C2C3CCC4C(O)C(O)C(OS(=O)(=O)O)CC4(C)C3CCC12C", "note": "(stereo not given)", "Activity": "Not toxic"}
{"smiles": "C=CC1C(O)CC2C3CCC4C(O)C(O)C(OS(=O)(=O)O)CC4(C)C3CCC12C", "note": "(stereo not given)", "Activity": "Not toxic"}
{"smiles": "C=C[C@H]1CC[C@H]2[C@@H]3CC[C@H]4[C@@H](O[C@@H]5O[C@H](CO)[C@@H](O)[C@H](OS(=O)(=O)O)[C@H]5O)[C@@H](OS(=O)(=O)O)CC[C@]4(CO)[C@H]3CC[C@]12C", "Activity": "Not toxic"}
{"smiles": "C=C[C@H]1CC[C@H]2[C@@H]3CC[C@H]4[C@@H](O[C@@H]5O[C@H](CO)[C@@H](O)[C@H](OS(=O)(=O)O)[C@H]5O)[C@@H](O)CC[C@]4(CO)[C@H]3CC[C@]12C", "Activity": "Not toxic"}
{"smiles": "C=CC1C(O)C(O)C2C3CCC4C(O)C(O)C(OS(=O)(=O)O)CC4(C)C3CCC12C", "note": "(stereo not given)", "Activity": "Not toxic"}
